From patent US20230303581A1, “ORALLY BIOAVAILABLE, BRAIN-PENETRANT COMPOUND WITH SELECTIVITY FOR THE CANNABINOID TYPE 2 RECEPTOR WITH POTENTIAL USE TOWARDS VISCERAL PAIN MANAGEMENT AND NEURODEGENERATIVE DISORDERS” (University of Mississippi, priority 2022, published 2023)
pKi: −log10 of the molar value.

Assays:
human CB1 receptors = human CB1 receptors (Homo sapiens (Human), UniProt P21554); assay: Cannabinoid receptor binding (displacement) assay, CB1; details: 10 μM compound
Procedure: (§1) The affinities of the compounds for CB1 and CB2 receptors were examined using displacement assays, as previously described. Briefly, cell membranes from CHO cells expressing human CB1 or human CB2 receptors were isolated using differential centrifugation. Test compounds reconstituted in DMSO and were incubated with the isolated membrane in binding buffer (50 mM Tris-HCl, 1 mM EDTA, 3 mM MgCl2, 5 mg/mL BSA, pH 7.4) along with 2.5 nM [^3H]CP-55,940. Total binding was assessed in the presence of equal concentration of DMSO, while non-specific binding was determined in the presence of 10 μM CP-55,940, and background binding was determined in wells lacking membrane. Following incubation at 30° C. for 60 min, the binding reactions were terminated by vacuum filtration through Whatman GF/C filters. The filters were then washed twice with ice-cold buffer (50 mM Tris-HCl, 1 mg/mL BSA). Liquid scintillation cocktail was added to each well and the total tritiated counts per minute were analyzed using a TopCount scintillation counter. Background counts were subtracted from all wells and the percent displacement from total binding was calculated.
(§2) The compounds were initially screened at 10 μM concentrations. If they produced at least ±30% displacement of the radioligand, then full competition curves were constructed. Ki values were calculated using GraphPad Prism (San Diego, CA, USA) and Kd values determined using a 1 site fit. All assays were run in technical and biological replicates so that the n=5-6. PK Evaluation in CD-1 Mice
(§3) The CB1/CB2 receptor binding activities of analogs 4a-4q were assessed via radioactivity-based competitive binding assays using [^3H]CP55,940, an extensively studied radioligand that is frequently used for cannabinoid assays. […] In preliminary screening, all 17 synthetic PBD compounds (4a-4q) were subjected to in vitro CB1 and CB2 binding assays at a single concentration of 10 μM. […] Therefore, the most promising ligands (4k and 4q) were selected for assessment in full competition curves against CB1 and CB2.

human CB2 receptors = human CB2 receptors (Homo sapiens (Human), UniProt P34972); assay: Cannabinoid receptor binding (displacement) assay, CB2; details: for Displacement of [3H]CP-55,940 from CB2: 10 μM compound
human CB2 receptors, sequence (P34972 whole entry): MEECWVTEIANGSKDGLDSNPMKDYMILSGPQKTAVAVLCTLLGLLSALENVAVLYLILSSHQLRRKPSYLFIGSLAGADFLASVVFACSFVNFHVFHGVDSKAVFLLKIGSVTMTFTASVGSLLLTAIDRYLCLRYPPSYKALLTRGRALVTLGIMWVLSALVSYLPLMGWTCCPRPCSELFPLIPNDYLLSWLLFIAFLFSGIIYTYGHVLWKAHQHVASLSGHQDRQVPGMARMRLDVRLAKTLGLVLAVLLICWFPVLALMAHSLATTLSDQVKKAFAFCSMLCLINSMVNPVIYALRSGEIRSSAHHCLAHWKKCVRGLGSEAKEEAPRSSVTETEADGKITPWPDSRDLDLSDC
Procedure: as §1, §2, §3

mice [1] = assay: Acetic acid-induced writhing test; assay type: in vivo; details: oxycodone 3 mg/kg, compound 4k 5 mg/kg, versus vehicle
Source text: Acetic acid-induced writhing is widely used for assessing analgesic effects against inflammatory pain of peripheral origin.

mice [2] = assay: Conditioned place preference test; assay type: in vivo; details: FIG. 4
Source text: Conditioned place preference testing is used to assess a compound's rewarding effects in order to gauge potential abuse liability. Mice are “conditioned” to associate distinctly lighted/colored/textured chambers with a rewarding drug (e.g., opioid) or no drug. If the mice sense a rewarding effect of the drug, they will prefer to occupy the chamber associated with that drug. FIG. 4 presents the results of a conditioned place preference test for 3 groups of mice (i.e., vehicle, oxycodone treated, and compound 4k treated).

human CB1 receptors, sequence (P21554 whole entry): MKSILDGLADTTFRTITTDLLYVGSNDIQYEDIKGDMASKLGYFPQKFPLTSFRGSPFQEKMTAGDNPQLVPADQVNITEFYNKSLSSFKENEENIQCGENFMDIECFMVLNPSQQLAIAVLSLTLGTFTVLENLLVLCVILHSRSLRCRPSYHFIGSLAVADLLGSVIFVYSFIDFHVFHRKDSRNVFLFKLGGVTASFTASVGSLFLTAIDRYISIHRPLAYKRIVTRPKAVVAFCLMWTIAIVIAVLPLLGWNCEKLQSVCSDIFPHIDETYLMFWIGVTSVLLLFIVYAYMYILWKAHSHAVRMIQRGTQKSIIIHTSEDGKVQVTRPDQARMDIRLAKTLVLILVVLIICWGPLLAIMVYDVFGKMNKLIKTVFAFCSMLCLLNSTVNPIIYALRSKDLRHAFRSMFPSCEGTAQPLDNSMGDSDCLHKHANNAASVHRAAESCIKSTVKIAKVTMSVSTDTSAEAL

Row | Compound | Displacement of [3H]CP-55,940 from CB1 (human CB1 receptors) [%] | Displacement of [3H]CP-55,940 from CB2 (human CB2 receptors) [%] | pKi (human CB2 receptors; CB2, full competition curves) | writhing over 30 minutes (mice [1]) | place preference (rewarding effect, abuse liability) (mice [2])
1 | Cn1cc(/C=N/N=C2/Nc3ccccc3C(=O)N3CCC[C@@H]23)c2ccccc21 [Compound 4o] | 5.09 | 1.01 |  |  | 
2 | O=C1c2ccccc2N/C(=N/N=C/C23CC4CC(CC(C4)C2)C3)[C@@H]2CCCN12 [Compound 4q] |  |  | 6.86 |  | 
3 | COc1ccc2c3c1O[C@H]1C(=O)CC[C@@]4(O)[C@@H](C2)N(C)CC[C@]314 [oxycodone, reference compound] |  |  |  | attenuate writhing | clear place preference
4 | (S,E)-11-[2-(Benzo[b]thiophenylmethylene)hydrazono]-pyrrolo[2,1-c][1,4]Benzodiazepine [Compound 4h] | 36.88 | 61.05 |  |  | 
5 | (S,E)-11-[(5-Methoxy-1H-indol-3-yl)methylene)hydrazono]-pyrrolo[2,1-c][1,4]Benzodiazepine [Compound 4p] | −27.20 | −29.47 |  |  | 
6 | (S,E)-11-[(Benzo[b]thiophen-2-ylmethylene)hydrazono]-7-bromo-pyrrolo[2,1-c][1,4]Benzodiazepine [Compound 4i] | 49.82 | 36.39 |  |  | 
7 | (S,E)-11-[(Benzo[b]thiophen-3-ylmethylene)hydrazono]-7-bromo-pyrrolo[2,1-c][1,4]Benzodiazepine [Compound 4j] | 66.81 | 65.24 |  |  | 
8 | (S,E)-11-[(Benzo[d]thiazol-2-ylmethylene)hydrazono]-pyrrolo[2,1-c][1,4] Benzodiazepine [Compound 4n] | 44.14 | 43.34 |  |  | 
9 | (S,E)-11-[(Thiazol-5-ylmethylene)hydrazono]-pyrrolo[2,1-c][1,4] Benzodiazepine [Compound 4c] | 0.25 | 3.06 |  |  | 
